Measured values taken from PMC10803289, “Transport and inhibition mechanism of the human SGLT2–MAP17 glucose transporter” (Nature Structural & Molecular Biology, 2023).
Several values for one entry are separate records, joined by “and”; a condition that tells them apart may be missing. Identical values can stand only once.

Legend:
Mock cells = test: α-MG uptake in mock (empty vector) HEK293 cells; type: cell-based, human; settings: Control (no inhibitor)
Description: HEK293 cells (ECACC 85120602) were maintained in Dulbecco’s modified Eagle medium (Gibco) supplemented with 10% fetal bovine serum (Thermo Scientific), 2 mM L-glutamine, 100 U ml^−1 benzylpenicillin and 100 µg ml^−1 streptomycin at 37 °C in a humidified atmosphere (5% CO2 in air). HEK293 cells were seeded at 1.0 × 10^5 cells per well in poly-L-lysine coated 24-well plates. The cells in each well were transiently transfected with 0.25 µg hMAP17 plasmid and 0.50 µg hSGLT2 plasmid using Lipofectamine 2000 (Life Technologies) and cultured for 48 h. […]
Cell lysates were deproteinized by adding acetonitrile containing candesartan as the internal standard. The α-MG concentration was quantified via liquid chromatography–tandem mass spectrometry (LC–MS/MS) using the internal standard method.
Cellular protein content was determined using a bicinchoninic acid protein assay kit (Thermo Fisher Scientific). The uptake of α-MG was expressed as the ratio of concentration in the cells (in pmol per mg protein) to concentration in the medium (in pmol μl^−1); this is known as the cell-to-medium ratio (in μl per mg protein).
In the inhibition study, the cell-to-medium ratio of cells transfected with the empty vector was used as the background. […] IC50 was calculated via nonlinear regression using GraphPad Prism 8.4.3. […]

hSGLT2 F98A = molecular target: T1, hSGLT2 F98A (Homo sapiens, UniProt P31639, F98A); test: SGLT2 inhibitor-binding assay (AS-MS), crude membrane, F98A mutant; parameters: expressed in transfected cells; host or cells: Expi293 cells, crude membrane fraction; settings: 30 nM canagliflozin, replicates
T1 sequence (P31639 1-672 F98A): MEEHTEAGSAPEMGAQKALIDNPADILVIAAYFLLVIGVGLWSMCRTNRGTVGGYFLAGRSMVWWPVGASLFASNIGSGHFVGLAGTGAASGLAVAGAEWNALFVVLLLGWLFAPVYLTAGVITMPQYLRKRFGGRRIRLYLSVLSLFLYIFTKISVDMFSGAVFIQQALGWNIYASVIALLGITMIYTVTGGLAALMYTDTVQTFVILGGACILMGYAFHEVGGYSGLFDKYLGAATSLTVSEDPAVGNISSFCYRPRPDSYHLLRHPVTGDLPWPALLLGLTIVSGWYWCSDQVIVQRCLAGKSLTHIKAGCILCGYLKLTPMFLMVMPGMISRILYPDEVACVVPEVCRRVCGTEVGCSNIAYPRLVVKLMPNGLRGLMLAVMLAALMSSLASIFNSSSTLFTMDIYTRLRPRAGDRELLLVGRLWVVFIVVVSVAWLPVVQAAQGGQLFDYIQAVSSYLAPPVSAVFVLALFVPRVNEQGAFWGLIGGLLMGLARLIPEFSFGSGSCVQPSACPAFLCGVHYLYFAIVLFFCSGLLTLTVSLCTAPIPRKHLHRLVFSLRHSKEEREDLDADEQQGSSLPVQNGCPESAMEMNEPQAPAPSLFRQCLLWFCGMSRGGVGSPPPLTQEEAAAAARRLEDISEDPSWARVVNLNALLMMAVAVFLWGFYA
T1 sequence (Q13113 1-114 partner): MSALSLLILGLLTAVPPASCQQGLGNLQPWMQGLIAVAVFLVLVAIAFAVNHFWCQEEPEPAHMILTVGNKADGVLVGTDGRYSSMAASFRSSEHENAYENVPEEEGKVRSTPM
Text: hSGLT2 complementary DNA and human MAP17 cDNA were synthesized and codon-optimized for expression in human cell lines. Both cDNAs were cloned into the pcDNA3.4 vector. The hSGLT2 sequence was fused with an N-terminal signal sequence from human trypsinogen 1, a His10 tag, and sfGFP, followed by a human rhinovirus 3C protease (HRV3C protease) recognition site. Point mutations were introduced into this construct using site-directed mutagenesis. These plasmids were utilized for all experimental procedures conducted in this study.
To examine the inhibition of binding to the crude membrane, mammalian Expi293 cells were co-transfected with the hMAP17 and hSGLT2 plasmids, as described. […] The extract solution from the filter plate was diluted with water containing candesartan as an internal standard, and the SGLT2 inhibitor concentration was quantified via LC–MS/MS.
Nonspecific binding was measured using the crude membrane of nontransfected Expi293 cells. Specific binding was calculated by subtracting nonspecific binding from the binding of hSGLT2-expressing cells. Specific binding was normalized to hSGLT2 protein expression levels, measured via FSEC. The equilibrium dissociation constant (Kd) and maximum number of binding sites (Bmax) were calculated via nonlinear regression in GraphPad Prism 8.4.3. […]

SGLT1 and SGLT2 = settings: in words; cited from earlier work

Compound | α-MG uptake (Mock cells) | Canagliflozin binding (% of WT) (hSGLT2 F98A) | subtype specificity of inhibition (SGLT1 vs SGLT2) (SGLT1 and SGLT2)
CO[C@H]1O[C@H](CO)[C@@H](O)[C@H](O)[C@H]1O [α-MG, α-methyl-D-glucopyranoside] | 1.2395 μL/mg-protein and 1.0638 μL/mg-protein and 1.0076 μL/mg-protein and 1.0525 μL/mg-protein | – | –
Cc1ccc([C@@H]2O[C@H](CO)[C@@H](O)[C@H](O)[C@H]2O)cc1Cc1ccc(-c2ccc(F)cc2)s1 [Canagliflozin] | – | -6.142 % of WT and -5.964 % of WT and -3.041 % of WT | SGLT2-specific inhibition
